Laboratory results as given in patent US12624034B2, “Non-covalent modifiers of AKT1 and uses thereof” (Terremoto Biosciences, Inc., priority 2023, dated 2026).
Like-named read-outs stand apart in the source and are kept apart here.

Tests used:
AKT1 E17K = molecular target: T1, AKT1 E17K (Homo sapiens, UniProt P31749, E17K); test: Live cell AKT1 E17K target engagement by NanoBRET competitive probe displacement in HEK293 cells; assay type: binding; settings: 2 h at 37° C.
T1 construct: expressed in transfected cells; host or cells: HEK293
T1 sequence (P31749 whole entry E17K): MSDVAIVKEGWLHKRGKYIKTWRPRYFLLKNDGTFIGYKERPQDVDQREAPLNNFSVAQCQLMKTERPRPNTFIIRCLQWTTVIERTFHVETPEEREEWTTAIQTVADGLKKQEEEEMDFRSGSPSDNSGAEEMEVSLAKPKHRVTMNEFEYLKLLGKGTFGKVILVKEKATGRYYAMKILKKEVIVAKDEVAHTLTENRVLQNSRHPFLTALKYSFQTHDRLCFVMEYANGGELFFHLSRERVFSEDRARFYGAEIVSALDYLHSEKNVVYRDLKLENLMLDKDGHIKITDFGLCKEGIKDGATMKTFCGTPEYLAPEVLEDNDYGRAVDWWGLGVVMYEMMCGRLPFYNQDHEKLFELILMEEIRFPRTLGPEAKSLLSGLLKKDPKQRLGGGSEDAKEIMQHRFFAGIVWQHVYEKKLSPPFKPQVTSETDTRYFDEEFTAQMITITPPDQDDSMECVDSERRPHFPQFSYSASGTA
Protocol: Determining live cell AKT1 E17K, AKT1 WT, and AKT2 target engagement by NanoBRET competitive probe displacement. Live cell target engagement assays were performed as described (Vasta, J. D. et al. Cell Chem Biol 2018, 25(11), 206-214). Briefly, HEK293 cells were transfected with plasmids encoding kinase-NanoLuciferase fusion proteins overnight. Cells were then treated with serial dilutions of compound and an ˜EC50 concentration of fluorescently-tagged ATP-competitive tracer (Promega). After incubation for 2 h at 37° C., luciferase substrate and extracellular luciferase inhibitor were added to all wells, and luminescent intensity at 460 nm and 600 nm were measured on a multimode plate-reader. The ratio of E600/E460 was calculated to give the tracer engagement signal (BRET). IC50 values were calculated by fitting BRET values to a log(inhibitor) vs. response Hill equation.

AKT2 = molecular target: T2, AKT2 (Homo sapiens, UniProt P31751); test: Live cell AKT2 target engagement by NanoBRET competitive probe displacement in HEK293 cells; assay type: binding; settings: 2 h at 37° C., read-out: AKT2 IC50
T2 construct: expressed in transfected cells; host or cells: HEK293
T2 sequence (P31751 whole entry): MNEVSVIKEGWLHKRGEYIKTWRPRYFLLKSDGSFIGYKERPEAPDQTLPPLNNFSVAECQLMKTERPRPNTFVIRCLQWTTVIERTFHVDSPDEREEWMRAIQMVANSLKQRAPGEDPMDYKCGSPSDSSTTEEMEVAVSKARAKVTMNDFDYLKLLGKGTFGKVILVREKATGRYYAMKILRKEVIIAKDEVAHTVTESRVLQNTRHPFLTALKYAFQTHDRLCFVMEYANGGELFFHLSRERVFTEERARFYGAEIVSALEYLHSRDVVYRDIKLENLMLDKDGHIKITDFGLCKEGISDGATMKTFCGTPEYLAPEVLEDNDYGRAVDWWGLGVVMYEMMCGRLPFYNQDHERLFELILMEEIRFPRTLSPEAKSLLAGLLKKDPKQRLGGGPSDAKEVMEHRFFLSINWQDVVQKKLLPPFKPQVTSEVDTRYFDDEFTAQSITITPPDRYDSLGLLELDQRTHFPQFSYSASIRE

[1] = test system: LAPC4 prostate cancer cells, which express the AKT1 E17K allele; test: Antiproliferative effects in LAPC4 cells (CellTiter Glo, 72 h); assay type: cell-based; settings: Homo sapiens, LAPC4, 72 h, read-out: LAPC4 proliferation IC50
Protocol: Antiproliferative Effects in LAPC4 Cells.
LAPC4 prostate cancer cells (Klein, K. A. et al. Nat Med 1997, 3, 402-408), which express the AKT1 E17K allele, were grown in IMDM media (Hyclone) supplemented with 12% FBS+1% P/S. To assess compound effects on growth, 1,000 cells/well were seeded in 384 well assay plates, incubated with compound dilutions dissolved in DMSO. After 72 h, intracellular ATP content was assessed with CellTiter Glo reagent (Promega) according to the manufacturer's instructions. IC50 values were calculated by fitting luminescence values to a log(inhibitor) vs. response Hill equation.

AKT1 WT = molecular target: T3, AKT1 WT (Homo sapiens, UniProt P31749); test: Live cell AKT1 WT target engagement by NanoBRET competitive probe displacement in HEK293 cells; assay type: binding; settings: 2 h at 37° C., read-out: AKT1 WT IC50
T3 construct: expressed in transfected cells; host or cells: HEK293
T3 sequence (P31749 whole entry): as the sequence (P31749 whole entry E17K) above, with K17E counted along it

[2] = NanoBRET live cell target engagement, HEK293 cells
[3] = NanoBRET competitive probe displacement, live HEK293 cells

SMILES | IC50 (AKT1 E17K; [2]) | IC50 (AKT2; [2]) | IC50 [1] | IC50 (AKT1 WT; [2]) | IC50 (AKT1 E17K; [3]) | IC50 (AKT2; [3]) | IC50 (AKT1 WT; [3])
Nc1ncccc1-c1nc2ccc(-n3cccn3)nc2n1-c1ccc2c(c1)CC[C@@H]2NC1CCN(C(=O)C2(F)CC2)CC1 [Compound 370] | 0.81 µM | 1.72 µM | > 10 µM | 0.0584 µM | – | – | –
COc1ccn(-c2ccc3nc(-c4cccnc4N)n(-c4ccc5c(c4)CC[C@@H]5NC4CCN(C(=O)C5CC5)CC4)c3n2)n1 [Compound 440] | – | – | 5.27 µM | – | > 1 µM | 1.75 µM | 0.0243 µM
Cc1ncccc1C(=O)N[C@H]1CCc2cc(-n3c(-c4cccnc4N)nc4ccc(-n5cccn5)nc43)ccc21 [Compound 29, (S)—N-(5-(2-(2-aminopyridin-3-yl)-5-(1H-pyrazol-1-yl)-3H-imidazo[4,5-b]pyridin-3-yl)-2,3-dihydro-1H-inden-1-yl)-2-methylnicotinamide] | 0.0786 µM | 0.153 µM | 3.65 µM | 0.0159 µM | – | – | –
Nc1ncccc1-c1nc2ccc(-n3cccn3)nc2n1-c1ccc2c(c1)CC[C@@H]2n1cc(C2CC2(F)F)nn1 (stereo partly shown) [Compound 362] | 0.138 µM | 1.27 µM | 6.96 µM | 0.0361 µM | – | – | –
Nc1ncccc1-c1nc2ccc(-n3cccn3)nc2n1-c1ccc2c(c1)CC[C@@H]2n1cnnc1CC1CC1 [Compound 384] | 0.0939 µM | 0.525 µM | 1.26 µM | 0.0132 µM | – | – | –
Nc1ncccc1-c1nc2ccc(-n3cccn3)nc2n1-c1ccc2c(c1)CC[C@@H]2NC(=O)c1cnccn1 [Compound 19, (S)—N-(5-(2-(2-aminopyridin-3-yl)-5-(1H-pyrazol-1-yl)-3H-imidazo[4,5-b]pyridin-3-yl)-2,3-dihydro-1H-inden-1-yl)pyrazine-2-carboxamide] | 0.167 µM | 2.12 µM | 8.03 µM | 0.0435 µM | – | – | –
Nc1ncccc1-c1nc2ccc(-n3cccn3)nc2n1-c1ccc2c(c1)CC[C@@H]2NC(=O)c1ccnc2c1CCCO2 [Compound 361] | 0.486 µM | 0.411 µM | 4.29 µM | 0.0247 µM | – | – | –
Cn1ccc(C(=O)N[C@H]2CCc3cc(-n4c(-c5cccnc5N)nc5ccc(-n6cccn6)nc54)ccc32)n1 [Compound 13, (S)—N-(5-(2-(2-aminopyridin-3-yl)-5-(1H-pyrazol-1-yl)-3H-imidazo[4,5-b]pyridin-3-yl)-2,3-dihydro-1H-inden-1-yl)-1-methyl-1H-pyrazole-3-carboxamide] | 0.329 µM | 1.27 µM | 3.48 µM | 0.0494 µM | – | – | –
Nc1ncccc1-c1nc2ccc(-n3cccn3)nc2n1-c1ccc2c(c1)CC[C@@H]2NC(=O)c1cccnc1 [Compound 34, N-[(1S)-5-[2-(2-aminopyridin-3-yl)-5-(pyrazol-1-yl)imidazo[4,5-b]pyridin-3-yl]-2,3-dihydro-1H-inden-1-yl]pyridine-3-carboxamide] | 0.0241 µM | 0.064 µM | 0.555 µM | 0.00627 µM | – | – | –
Nc1ncccc1-c1nc2ccc(-n3cccn3)nc2n1-c1ccc2c(c1)CC[C@@H]2NC(=O)c1ccc(C2CC2)nc1 [Compound 46, N-[(1S)-5-[2-(2-aminopyridin-3-yl)-5-(pyrazol-1-yl)imidazo[4,5-b]pyridin-3-yl]-2,3-dihydro-1H-inden-1-yl]-6-cyclopropylpyridine-3-carboxamide] | 0.015 µM | 0.017 µM | 0.331 µM | 0.00694 µM | – | – | –
Nc1ncccc1-c1nc2ccc(-n3ccc(N4CCOCC4)n3)nc2n1-c1ccc2c(c1)CC[C@@H]2NC1CCN(C(=O)C2CC2)CC1 [Compound 488] | – | – | 0.624 µM | – | 0.0306 µM | 0.098 µM | 0.00799 µM
Cc1cc(C(F)F)ncc1C(=O)N[C@H]1CCc2cc(-n3c(-c4cccnc4N)nc4ccc(-n5cccn5)nc43)ccc21 [Compound 56, (S)—N-(5-(2-(2-aminopyridin-3-yl)-5-(1H-pyrazol-1-yl)-3H-imidazo[4,5-b]pyridin-3-yl)-2,3-dihydro-1H-inden-1-yl)-6-(difluoromethyl)-4-methylnicotinamide] | 0.143 µM | 0.0433 µM | 1.63 µM | 0.0122 µM | – | – | –
Nc1ncccc1-c1nc2ccc(-n3ccc(F)n3)nc2n1-c1ccc2c(c1)CC[C@@H]2NC1CCN(c2ccccn2)CC1 [Compound 367] | 0.735 µM | 2.52 µM | 6.33 µM | 0.0744 µM | – | – | –
